Patent US20250288564A1, “DIHYDROBERBERINE COMPOSITION AND USE THEREOF” (NANJING NUTRABUILDING BIO-TECH CO., LTD., priority 2022, published 2025)

Key:
[1] = compared with berberine, background statement; cited from earlier work
Bacteroides fragilis [2] = assay: Relative abundance of microbiota in feces of volunteers (16s sequencing); assay type: in vivo, human; conditions: 200 mg DHB every day, 3-week experiment, FIG. 1A
Protocol: (§1) Experimental method: Six volunteers (three males and three females) were recruited to obtain relevant health data, and it was confirmed that they had not taken antibiotics or probiotics in the previous three months, and were healthy and had no chronic diseases. A 3-week experiment was designed. Volunteers had 30 minutes of moderate-intensity exercise every day, and ensured regular work and rest, reasonable diet, and no smoking or drinking. They were administered 200 mg of dihydroberberine (DHB) every day, and fecal samples were collected on days 0, 7, 14 and 21 of the experiment, and the corresponding bacterial species were analyzed. Before the experiment, fecal samples of each volunteer were collected, and species information was obtained through genomic DNA extraction, PCR amplification of 16s RNA and database comparison.

[3] = system: Lactobacillus acidophilus; assay: as above; assay type: in vivo, human; conditions: 200 mg DHB every day, 3-week experiment, FIG. 1A
Protocol: as §1

[4] = system: Faecalibacterium Prausnitzii; assay: as above; assay type: in vivo, human; conditions: 200 mg DHB every day, 3-week experiment, FIG. 1A
Protocol: as §1

Desulfovibrio [5] = assay: as above; assay type: in vivo, human; conditions: 200 mg DHB every day, 3-week experiment, FIG. 1B
Protocol: as §1

Klebsiella pneumoniae [6] = assay: as above; assay type: in vivo, human; conditions: 200 mg DHB every day, 3-week experiment, FIG. 1B
Protocol: as §1

Akkermansia muciniphila [7] = assay: as above; assay type: in vivo, human; conditions: 200 mg DHB every day, 3-week experiment, FIG. 1A
Protocol: as §1

acute colitis model = assay: DSS-induced acute colitis model in mice (DAI, colon pathology); assay type: in vivo; conditions: 3% DSS for 9 days, treatment group DSS+DHB, DHB 50 mg/kg daily
Excerpt: Experimental method: Thirty 4-6-week-old mice, 15 males and 15 females, were selected for adaptive feeding for 7 days in advance. They were randomly divided into control group (CON), model group (DSS) and treatment group (DSS+DHB), with 10 mice in each group. The model group and the treatment group were gavaged with 3% dextran sodium sulfate (DSS) for 9 days to establish an acute colitis model, while the control group was gavaged with the same amount of normal saline every day. The weight, feces and rectal bleeding of mice were recorded every day, and the disease activity index (DAI) was used to evaluate the condition of colitis. The DAI value was obtained by adding all the scores and dividing them by three. Mice in the treatment group were given DHB at a daily dose of 50 mg/kg. On the 10th day, blood was taken from the orbit of each mouse, and then it was killed. Colon tissues were collected, fixed in 4% paraformaldehyde solution and stored at −80° C. for subsequent analysis. The pathological damage of colon tissue was examined by hematoxylin-eosin staining and Alxin blue staining. [table]

Bacteroides fragilis [8] = assay: Relative abundance of microbiota in feces of mice (16S rDNA sequencing); assay type: in vivo; conditions: DHB 100 mg/kg gavage once a day for 4 weeks, FIG. 2A
Excerpt: (§2) Experimental method: After a week of adaptive feeding, mice were randomly divided into four groups according to sex and weight: group 1, control group, n=10; group 2, normal+DHB group, n=10; group 3, high-fat-high-sugar group, n=10; and group 4, high-fat-high-sugar+DHB group, n=10. High-fat-high-sugar group (group 3) and high-fat-high-sugar+DHB group (group 4) were given high-fat and high-sugar feed (containing 35% fat, 18% protein and 47% carbohydrate), while the control group and normal+DHB group were given normal feed. After eight weeks, blood was taken from the tail vein to detect blood sugar, and the groups 3 and 4 were given high-fat and high-sugar feed, while the control group and normal+DHB group (groups 1 and 2) were given basic feed until the end of the experiment. Then, groups 2 and 4 were administered DHB at 100 mg/kg (dissolved in physiological saline) for 4 weeks, and fecal samples were taken on days 0, 14 and 28. The maximum dose of DHB refers to the usual dose of daily health care, and the dosage is set to 200 mg/kg. The specific gavage scheme is: dissolve DHB in water and gavage once a day according to the weight of mice, while the control group gavage with the same amount of pure water. Analysis of the relative abundance of intestinal flora: Four samples of mouse feces were randomly taken from each group. The samples were first extracted for DNA, 16S rDNA was amplified by PCR, and then sequenced. After completing the classification of data species, the relative abundance of each species was analyzed.

[9] = system: Lactobacillus acidophilus; assay: as above; assay type: in vivo; conditions: DHB 100 mg/kg gavage once a day for 4 weeks, FIG. 2A
Excerpt: as §2

[10] = system: Faecalibacterium Prausnitzii; assay: as above; assay type: in vivo; conditions: DHB 100 mg/kg gavage once a day for 4 weeks, FIG. 2A
Excerpt: as §2

Desulfovibrio [11] = assay: as above; assay type: in vivo; conditions: DHB 100 mg/kg gavage once a day for 4 weeks, FIG. 2B
Excerpt: as §2

Klebsiella pneumoniae [12] = assay: as above; assay type: in vivo; conditions: DHB 100 mg/kg gavage once a day for 4 weeks, FIG. 2B
Excerpt: as §2

Akkermansia muciniphila [13] = assay: as above; assay type: in vivo; conditions: DHB 100 mg/kg gavage once a day for 4 weeks, FIG. 2A
Excerpt: as §2

[14] = system: Bacteroides and Firmicutes; assay: Abundance ratio of Bacteroides and Firmicutes in mouse feces; assay type: in vivo, mice; conditions: DHB 100 mg/kg, 4 weeks, FIG. 3
Excerpt: as §2, with “Analysis of the relative abundance of intestinal flora: Four samples of mouse feces were randomly taken from each group. The samples were first extracted for DNA, 16S rDNA was amplified by PCR, and then sequenced.” left out, “analyzed. […]” for “analyzed.”

Akkermansia muciniphila [15] = assay: Absolute amount of Akkermansia muciniphila in mouse feces (qPCR); assay type: in vivo, mice; conditions: DHB 100 mg/kg, 4 weeks, FIG. 4
Excerpt: Experimental method: After a week of adaptive feeding, mice were randomly divided into four groups according to sex and weight: group 1, control group, n=10; group 2, normal+DHB group, n=10; group 3, high-fat-high-sugar group, n=10; and group 4, high-fat-high-sugar+DHB group, n=10. High-fat-high-sugar group (group 3) and high-fat-high-sugar+DHB group (group 4) were given high-fat and high-sugar feed (containing 35% fat, 18% protein and 47% carbohydrate), while the control group and normal+DHB group were given normal feed. After eight weeks, blood was taken from the tail vein to detect blood sugar, and the groups 3 and 4 were given high-fat and high-sugar feed, while the control group and normal+DHB group (groups 1 and 2) were given basic feed until the end of the experiment. […]
Determination of absolute amount of Akkermansia muciniphila in mouse feces: The colon feces of mice were collected, the absolute amount of Akkermansia mucinipha in each gram of feces was detected, and the influence of the composition of the invention on the absolute amount of Akkermansia mucinipha in the intestines of normal and high-fat-high-sugar mice was analyzed. […] The data is expressed as the logarithm of the number of bacteria per gram of feces (Log 10), and the results are shown in FIGS. 2-4.

[16] = high-fat-high-sugar mice: group 4 (+DHB) compared with group 3
[17] = normal feed mice: group 2 (normal+DHB) compared with group 1 (control)

COc1ccc2c(c1OC)CN1CCc3cc4c(cc3C1=C2)OCO4 [dihydroberberine]
water solubility relative to berberine [1]: higher water solubility | increase of relative abundance level of Bacteroides fragilis (Bacteroides fragilis [2]): 0.11% | increase of relative abundance level of Lactobacillus acidophilus [3]: 0.20% | increase of relative abundance level of Faecalibacterium Prausnitzii [4]: 0.15% | decrease of relative abundance level of Desulfovibrio (Desulfovibrio [5]): 0.14% | decrease of relative abundance level of Klebsiella pneumoniae (Klebsiella pneumoniae [6]): 0.12% | increase of relative abundance level of Akkermansia muciniphila (Akkermansia muciniphila [7]): 0.09% | intestinal pathological changes (colon tissue, hematoxylin-eosin and Alxin blue staining) (acute colitis model; FIGS. 5A-5C): significantly improved the integrity of crypt structure | DAI score (disease activity index) (acute colitis model; model group close to 3): about 1.1 | increase of relative abundance level of Bacteroides fragilis (Bacteroides fragilis [8]): 0.10% | increase of relative abundance level of Lactobacillus acidophilus [9]: 0.19% | increase of relative abundance level of Faecalibacterium Prausnitzii [10]: 0.14% | decrease of relative abundance level of Desulfovibrio (Desulfovibrio [11]): 0.08% | decrease of relative abundance level of Klebsiella pneumoniae (Klebsiella pneumoniae [12]): 0.11% | increase of relative abundance level of Akkermansia muciniphila (Akkermansia muciniphila [13]): 0.09% | increase of ratio of Bacteroides to Firmicutes [14, 16]: 0.51 | increase of ratio of Bacteroides to Firmicutes [14, 17]: 0.36 | increase of logarithm number of Akkermansia muciniphila per gram of feces (Akkermansia muciniphila [15]; [16]): 0.55 order of magnitude | increase of logarithm number of Akkermansia muciniphila per gram of feces (Akkermansia muciniphila [15]; [17]): 0.65 order of magnitude
